According to ChEMBL document CHEMBL1201862, “PubChem BioAssay data set” (2004):
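96-well plates; 48 h exposure; 5 concentrations. Endpoints by linear interpolation between flanking doses. Not reached: highest tested concentration assigned. The concentration for 50% growth inhibition is given as GI50.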 Active and inactive are the calls of the source. Rule as the data show it: active = GI50 up to about 1.1 µM and inactive = higher.

Tests used:
Test in all cases: NCI anticancer screen, dose series, 48 h
XF498 = test system: XF498
DMS-114 = test system: DMS-114
LXFL 529 = test system: LXFL 529
KM-20L2 = test system: KM-20L2
DMS-273 = test system: DMS-273
M19-MEL = test system: M19-MEL
DLD-1 = test system: DLD-1
SNB-78 = test system: SNB-78
RXF 631 = test system: RXF 631

Measured: GI50

C=CCOC(C)n1c(C)c(Br)c(=O)[nH]c1=O (stereo unspecified)
inactive: XF498 > 100 µM | DMS-114 > 100 µM | LXFL 529 > 100 µM | KM-20L2 > 100 µM | DMS-273 > 100 µM | M19-MEL > 100 µM | DLD-1 > 100 µM

CCCCCCCCCCn1cccc1/C=C/c1ccc(/C=C/c2cccn2CCCCCCCCCC)cc1
inactive: XF498 > 100 µM | DMS-114 > 100 µM | LXFL 529 > 100 µM | KM-20L2 > 100 µM | DMS-273 > 100 µM | M19-MEL > 100 µM | SNB-78 > 100 µM | DLD-1 > 100 µM

N#CC1(N2CCCC2)CCC2(CC1)OCCO2
inactive: DMS-114 > 100 µM | KM-20L2 > 100 µM | DMS-273 > 10 µM | M19-MEL > 10 µM | SNB-78 > 100 µM

CC(=O)OC1CC2C(C)(C)C(=O)C=C[C@]2(C)C2CCC3(C)C(=CCC3[C@H](CO)C[C@H](O)C(=O)C(C)(C)O)[C@]12C (stereo partly specified)
inactive: RXF 631 30.5 µM | DMS-114 33.9 µM | LXFL 529 42.4 µM | KM-20L2 13.6 µM | DMS-273 30.9 µM | M19-MEL 35.8 µM | SNB-78 76.4 µM | DLD-1 14.9 µM

O=C1CCCCC12CCC/C2=N\O (stereo unspecified)
inactive: RXF 631 > 100 µM | DMS-114 > 100 µM | LXFL 529 > 100 µM | KM-20L2 > 100 µM | DMS-273 > 100 µM | M19-MEL > 100 µM | SNB-78 > 100 µM | DLD-1 > 100 µM

N#CC1(CCCCl)CCCCC1
inactive: XF498 > 100 µM | RXF 631 > 100 µM | DMS-114 > 100 µM | LXFL 529 > 100 µM | KM-20L2 > 100 µM | DMS-273 > 100 µM | M19-MEL > 100 µM | SNB-78 > 100 µM | DLD-1 > 100 µM

O=C(O)CCNCCCCNCCC(=O)O
inactive: XF498 > 100 µM | LXFL 529 > 100 µM | KM-20L2 > 100 µM | DMS-273 > 100 µM | DLD-1 > 100 µM

NC(CCCNCc1ccccc1)C(=O)O (stereo unspecified)
inactive: RXF 631 > 100 µM | DMS-114 > 100 µM | LXFL 529 > 100 µM | KM-20L2 > 100 µM | DMS-273 > 100 µM | M19-MEL > 100 µM | DLD-1 > 100 µM

CCCCCCCCCCCc1cc(=O)c2c(O)cccc2o1
inactive: XF498 42.8 µM | RXF 631 > 100 µM | DMS-114 38.7 µM | LXFL 529 55.1 µM | DMS-273 56.6 µM | M19-MEL 43.8 µM | SNB-78 > 100 µM | DLD-1 > 100 µM

CCc1ccc(Cc2ccc(CC)c(NC(=O)C(=O)Cc3nc4ccccc4nc3C)c2CC)c(CC)c1NC(=O)C(=O)Cc1nc2ccccc2nc1C
inactive: RXF 631 84.9 µM | DMS-114 47.5 µM | LXFL 529 54.1 µM | KM-20L2 > 100 µM | M19-MEL > 100 µM | SNB-78 76.2 µM | DLD-1 > 100 µM

N#C/C(=C\c1cc(O)ccc1O)C(N)=O
inactive: XF498 65.3 µM | RXF 631 58.1 µM | DMS-114 24.8 µM | LXFL 529 35.6 µM | KM-20L2 46.8 µM | DMS-273 47.3 µM | M19-MEL 51.3 µM | SNB-78 25.6 µM | DLD-1 70.6 µM

O=C(O)c1cc(S(=O)(=O)N/N=C\c2c3ccccc3[n+]([O-])c3ccccc23)ccc1O
inactive: DMS-114 12.7 µM | LXFL 529 12.2 µM | KM-20L2 13.3 µM | DMS-273 7.16 µM | M19-MEL 13.3 µM | SNB-78 20.6 µM | DLD-1 16.7 µM

CCOP(=O)(OCC)C(C(=O)OC)C(=O)C(=O)Nc1ccc(Cl)cc1Cl (stereo unspecified)
inactive: XF498 3.78 µM | DMS-114 > 100 µM | LXFL 529 > 100 µM | KM-20L2 > 100 µM | DMS-273 > 100 µM | M19-MEL > 100 µM | SNB-78 > 100 µM | DLD-1 > 100 µM

COc1ccc(C(=O)C=C2NCCN2)cc1
inactive: DMS-114 > 100 µM | LXFL 529 > 100 µM | KM-20L2 > 100 µM | DMS-273 > 100 µM | M19-MEL > 100 µM | SNB-78 > 100 µM | DLD-1 > 100 µM

CCOC1=C2N=C(Cc3ccccc3F)N=C2C(=O)c2ccccc21
inactive: XF498 > 100 µM | DMS-114 > 100 µM | LXFL 529 > 100 µM | KM-20L2 > 100 µM | DMS-273 > 100 µM | M19-MEL > 100 µM | DLD-1 > 100 µM

CCOC(=O)C(Cc1ccccc1)NC(=O)c1nc[nH]c1/N=N/N(C)C (stereo unspecified)
inactive: DMS-114 > 100 µM | LXFL 529 > 100 µM | DMS-273 > 100 µM | M19-MEL > 100 µM | DLD-1 > 100 µM

COC12OCCN(C)C1=CC(=O)C1=NNC(C)C12 (stereo unspecified)
inactive: RXF 631 > 100 µM | DMS-114 > 100 µM | LXFL 529 > 100 µM | DMS-273 > 100 µM | M19-MEL > 100 µM | SNB-78 > 100 µM | DLD-1 > 100 µM

COc1ccc(Nc2nc3cc(C(F)(F)F)ccc3nc2-c2ccccc2)cc1OC
inactive: XF498 1.71 µM | DMS-114 10.3 µM | LXFL 529 49 µM | DMS-273 6.08 µM | SNB-78 25.4 µM | DLD-1 21.4 µM

CC(=O)OCC1OC(OC2CC3C(C)(C)C(O)CC[C@]3(C)C3CCC45CC4(CC[C@H]5C(C)CC(O)C4OC4(C)C)[C@]23C)C(O)C(O)C1O (stereo partly specified)
inactive: XF498 4.13 µM | DMS-114 5.21 µM | LXFL 529 5.83 µM | KM-20L2 8.13 µM | DMS-273 8 µM | M19-MEL 4.27 µM | DLD-1 8.09 µM

O=C1c2ccccc2C(=O)C1C(c1ccc(F)cc1)C1C(=O)c2ccccc2C1=O
inactive: XF498 > 100 µM | RXF 631 > 100 µM | DMS-114 > 100 µM | LXFL 529 > 100 µM | KM-20L2 > 100 µM | DMS-273 > 100 µM | M19-MEL 61 µM | SNB-78 > 100 µM | DLD-1 > 100 µM

Cc1c2ccncc2c(C)c2c1[nH]c1ccc(OC(C)(C)C)cc12
inactive: XF498 1.93 µM | RXF 631 2.45 µM | DMS-114 2.02 µM | LXFL 529 2.23 µM | KM-20L2 1.78 µM | DMS-273 1.86 µM | M19-MEL 2.14 µM | SNB-78 2.41 µM | DLD-1 2.39 µM

CC1=Nn2c(nnc2-c2ccc(N)cc2)NC(C)(C)C1
inactive: XF498 > 100 µM | RXF 631 > 100 µM | DMS-114 > 100 µM | LXFL 529 > 100 µM | KM-20L2 > 100 µM | DMS-273 > 100 µM | M19-MEL > 100 µM | SNB-78 > 100 µM | DLD-1 > 100 µM

O=C(Nc1cc(Cl)c(Cl)cc1Cl)C(=O)C(C(=O)c1ccccc1)C1OC(=O)c2ccccc21 (stereo unspecified)
inactive: XF498 > 100 µM | RXF 631 > 100 µM | DMS-114 > 100 µM | LXFL 529 > 100 µM | KM-20L2 > 100 µM | DMS-273 > 100 µM | M19-MEL > 100 µM | SNB-78 > 100 µM | DLD-1 > 100 µM
